Measurements: PubChem BioAssay (NCI)
Several values for one entry are separate records, joined by “and”; a condition that tells them apart may be missing. Identical values can stand only once.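 These data come from cells grown in 96-well plates and exposed to compound for 48 hours at five concentrations. GI50: concentration for 50% inhibition of growth. TGI marks complete inhibition of growth.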

How the values were obtained:
Assay in all cases: inhibition of tumour cell growth, NCI panel, 48 h
UO-31 renal = tested on: UO-31 renal
SK-MEL-28 melanoma = tested on: SK-MEL-28 melanoma
HCT-116 colon = tested on: HCT-116 colon
HCT-15 colon = tested on: HCT-15 colon
SK-MEL-5 melanoma = tested on: SK-MEL-5 melanoma
HT29 colon = tested on: HT29 colon
NCI-H522 lung = tested on: NCI-H522 lung
LOX IMVI melanoma = tested on: LOX IMVI melanoma
MALME-3M melanoma = tested on: MALME-3M melanoma
BT-549 breast = tested on: BT-549 breast

SMILES	TGI (UO-31 renal)	TGI (SK-MEL-28 melanoma)	TGI (HCT-116 colon)	TGI (HCT-15 colon)	TGI (SK-MEL-5 melanoma)	TGI (HT29 colon)	TGI (NCI-H522 lung)	TGI (LOX IMVI melanoma)	TGI (MALME-3M melanoma)	TGI (BT-549 breast)	GI50 (UO-31 renal)	GI50 (HCT-116 colon)	GI50 (HCT-15 colon)	GI50 (HT29 colon)	GI50 (SK-MEL-28 melanoma)	GI50 (SK-MEL-5 melanoma)	GI50 (NCI-H522 lung)
CC1(C)[C@@H]2CC[C@@]1(C)[C@H](O)[C@@H]2SCc1ccccc1	35.4 µM	38.4 µM	44.4 µM	29.7 µM	29.1 µM	29.6 µM	29.3 µM	36.6 µM									
CCOC(=O)C1CCCCc2sc(N)c(C#N)c21 (stereo unspecified)	> 100 µM	> 100 µM	> 100 µM	> 100 µM	> 100 µM	> 100 µM			> 100 µM	> 100 µM							
COC(=O)/C=C/c1ccc2c(c1)CC1(Cc3ccccc3C1)C2	> 100 µM		1.34 µM	> 100 µM	> 100 µM	> 100 µM	> 100 µM	> 100 µM	> 100 µM								
COc1ccc(-c2c3ccccc3c(-c3ccc(OCCCCCBr)cc3)c3ccccc23)cc1	> 100 µM	> 100 µM	> 100 µM	> 100 µM		> 100 µM	> 100 µM	> 100 µM	> 100 µM								
O=S1(=O)OCCOS(=O)(=O)C1Cc1nc2ccccc2[nH]1	> 100 µM	> 100 µM	57 µM	> 100 µM	> 100 µM	> 100 µM		38.1 µM	> 100 µM								
NC(=S)N/N=C\CC(O)(C(F)(F)F)C(F)(F)F	> 10 µM	> 10 µM	> 10 µM	> 10 µM	> 10 µM	> 10 µM	> 10 µM	> 10 µM	> 10 µM								
COC(=O)C(NC(=O)CSc1nnc(COc2ccc(Cl)cc2)n1-c1ccccc1)C(C)C (stereo unspecified)	> 100 µM	51.6 µM	31.4 µM	> 100 µM		44.5 µM	24.7 µM	88.1 µM	31.9 µM								
Nc1c(N=Nc2ccc(-c3ccc(N=Nc4c(O)ccc5cc(S(=O)(=O)O)cc(S(=O)(=O)O)c45)cc3)cc2)c(S(=O)(=O)O)cc2cc(S(=O)(=O)O)c(N=Nc3ccccc3)c(O)c12		> 100 µM	> 100 µM	> 100 µM	> 100 µM	> 100 µM	> 100 µM	> 100 µM	> 100 µM								
CC(C)(C)c1c(C(C)(C)C)c(=O)c1=O	> 100 µM	> 100 µM	> 100 µM	> 100 µM	> 100 µM	> 100 µM		> 100 µM	> 100 µM	> 100 µM							
COc1ccc(C2=C(OC(=O)N(C)C)c3cccn3-c3cc(Cl)ccc3S2)cc1		> 10 µM		> 10 µM	> 10 µM	> 10 µM		> 10 µM	> 10 µM								
CC(=O)CC1(C)OC(N)=C(C#N)C1(C#N)C#N (stereo unspecified)	> 100 µM	> 100 µM	> 100 µM	> 100 µM	> 100 µM	> 100 µM	> 100 µM	> 100 µM	> 100 µM								
OC12CCCCCC1(N1CCOCC1)c1ccccc12 (stereo unspecified)	> 100 µM	> 100 µM	> 100 µM	> 100 µM	> 100 µM	> 100 µM	> 100 µM	> 100 µM	> 100 µM								
C=CCOC(=O)CCCCCCCCCCCCCCCOC(=O)C1=C(CCC[C@@H](C)O[Si](C)(C)C(C)(C)C)NC(=O)N2[C@H](CC3(CC/C=C\[C@H](CC)O[Si](C(C)C)(C(C)C)C(C)C)OCCO3)CC[C@H]12	> 100 µM	> 100 µM	> 100 µM	> 100 µM	> 100 µM		> 100 µM		> 100 µM	> 100 µM							
COC(=O)n1c(C[P+](c2ccccc2)(c2ccccc2)c2ccccc2)cc2ccccc21		15.7 µM	11 µM	34.2 µM	3.93 µM	11.8 µM	6.34 µM	11.5 µM	17.1 µM								
CC(C)(C)CC(C)(C)c1ccc(OCCOCC[N+](C)(C)Cc2ccccc2)cc1	45.9 µM and 43 µM	3.68 µM	2.69 µM and 3.55 µM	63.6 µM and 51.3 µM		2.49 µM and 3.3 µM	6.42 µM		3.64 µM		12.4 µM	1.38 µM	16.6 µM	1.14 µM			
CC(=O)NC1=C(NCC(C)C)C(=O)c2ccccc2C1=O	34.4 µM	37.2 µM	35.2 µM	33.7 µM	43.6 µM	> 100 µM		30.1 µM	34.2 µM								
COc1cccc(CN(C(=O)/C=C\Sc2ccccc2)C(C)(C)C)c1	> 100 µM	> 100 µM	> 100 µM	> 100 µM	> 100 µM	> 100 µM		> 100 µM		> 100 µM							
O=C(CSc1nc2ccc(I)cc2c(=O)n1Cc1ccccc1)NN1C(=O)CCC1=O		> 100 µM	> 100 µM	> 100 µM	> 100 µM	> 100 µM	47.1 µM	> 100 µM									

SMILES	TGI (UO-31 renal)	TGI (SK-MEL-28 melanoma)	TGI (HCT-116 colon)	TGI (HCT-15 colon)	TGI (SK-MEL-5 melanoma)	TGI (HT29 colon)	TGI (NCI-H522 lung)	TGI (LOX IMVI melanoma)	TGI (MALME-3M melanoma)	TGI (BT-549 breast)	GI50 (UO-31 renal)	GI50 (HCT-116 colon)	GI50 (HCT-15 colon)	GI50 (HT29 colon)	GI50 (SK-MEL-28 melanoma)	GI50 (SK-MEL-5 melanoma)	GI50 (NCI-H522 lung)
CC(=O)Nc1ccc(C(=O)N2N=C(C)/C(=C/c3ccc(O)cc3)C2=O)cc1	> 100 µM	> 100 µM	> 100 µM	> 100 µM	> 100 µM	> 100 µM	> 100 µM	> 100 µM	> 100 µM								
C/C(=C\Cc1cc(O)ccc1O)CCc1c(C)cc(O)c(C=O)c1C	78.1 µM	54.7 µM	41 µM	84.5 µM	31.7 µM	48.6 µM	23.6 µM		53.8 µM								
O=CNNC(=O)Nc1ccc(Cl)cc1	> 100 µM	> 100 µM	> 100 µM	> 100 µM	> 100 µM	> 100 µM			> 100 µM								
CCOC(=O)CCCn1cc(C(=O)OC)nn1	> 100 µM	> 100 µM	> 100 µM	> 100 µM	> 100 µM	> 100 µM		> 100 µM	> 100 µM	> 100 µM							
O=c1c2c(nc3n1CCC3)sc1c(O)c(Br)ccc12	45.8 µM	34.8 µM	35.2 µM	45.7 µM	30.4 µM	33.1 µM	37.9 µM	27.1 µM	34.4 µM								
COc1ccc(/C=C2\CCC(CNc3ccc(Br)cc3)C2=O)cc1 (stereo unspecified)	> 100 µM	> 100 µM		> 100 µM	> 100 µM	> 100 µM		> 100 µM	> 100 µM	> 100 µM							
Cc1cc(=O)[nH]c(NNC(C#N)c2ccc([N+](=O)[O-])cc2)n1 (stereo unspecified)	> 100 µM	> 100 µM	> 100 µM	> 100 µM	> 100 µM	> 100 µM	> 100 µM	> 100 µM	> 100 µM								
Nc1ncc(/C=N/O)c(NCC2(CO)CC(CCc3ccccc3)C2)n1 (stereo unspecified)	26.9 µM		18 µM	29.9 µM	11.9 µM	9.07 µM	20.9 µM	22.3 µM	25.3 µM								
O=C1OI(C#Cc2ccccc2)c2ccccc21	14.3 µM	21.2 µM	5.8 µM	11.2 µM	6.77 µM	20.1 µM		> 100 µM	5.64 µM	8.22 µM							
CC12CC(C/C1=N/O)C(C)(C)C2 (stereo unspecified)	> 100 µM	> 100 µM	> 100 µM		> 100 µM	> 100 µM	> 100 µM		> 100 µM	> 100 µM							
Cc1cc2n([O-])cccc-2[n+](=O)c1	> 100 µM	> 100 µM	> 100 µM	> 100 µM	> 100 µM	> 100 µM	> 100 µM		> 100 µM								
O=C(OCc1ccccc1C1CSCSC1)c1cc(C(=O)OCc2ccccc2C2CSCSC2)c(C(=O)OCc2ccccc2C2CSCSC2)cc1C(=O)OCc1ccccc1C1CSCSC1	> 100 µM	> 100 µM	> 100 µM	> 100 µM	> 100 µM	> 100 µM	> 100 µM	> 100 µM	> 100 µM								
CCCCCCOc1ccc(C(=N)N(CCCC)CCCC)c2ccccc12	2.55 µM	3.2 µM			2.85 µM		2.07 µM				1.14 µM				1.77 µM	1.52 µM	0.61 µM
COC(=O)CC(NC(=O)OCc1ccccc1)C(C(=O)OCc1ccccc1)C1(C)OCCO1 (stereo unspecified)	61.1 µM	> 100 µM	> 100 µM	> 100 µM	32.7 µM	> 100 µM		> 100 µM	> 100 µM								
CC1(C)COC(c2c(-c3ccccc3)noc2CS(=O)c2ccccc2)=N1 (stereo unspecified)	> 100 µM	> 100 µM	> 100 µM	> 100 µM	> 100 µM	> 100 µM	> 100 µM	> 100 µM	> 100 µM								
O=C(c1ccco1)C1CC(c2ccc3ccccc3c2O)=NN1c1ccc([N+](=O)[O-])cc1[N+](=O)[O-] (stereo unspecified)	> 100 µM	> 100 µM	> 100 µM	> 100 µM		42.3 µM	47.5 µM		> 100 µM	> 100 µM							
CCOC(=O)/C(C#N)=C/N(CC)/N=C/c1ccccc1	> 100 µM	> 100 µM	> 100 µM	> 100 µM	> 100 µM	> 100 µM	> 100 µM		> 100 µM	> 100 µM							
